For data set [1] the following is noted: conscious dogs; cited from earlier work.
The test system of a further data set is hepatocytes. The following applies: cited from earlier work.
For data set [2] the following is noted: db/db and ob/ob mice; cited from earlier work.
Data set [3] has as its target T1, Human recombinant liver glycogen phosphorylase α (hrl GPα) (Homo sapiens, UniProt P06737).
T1 sequence (P06737 1-847): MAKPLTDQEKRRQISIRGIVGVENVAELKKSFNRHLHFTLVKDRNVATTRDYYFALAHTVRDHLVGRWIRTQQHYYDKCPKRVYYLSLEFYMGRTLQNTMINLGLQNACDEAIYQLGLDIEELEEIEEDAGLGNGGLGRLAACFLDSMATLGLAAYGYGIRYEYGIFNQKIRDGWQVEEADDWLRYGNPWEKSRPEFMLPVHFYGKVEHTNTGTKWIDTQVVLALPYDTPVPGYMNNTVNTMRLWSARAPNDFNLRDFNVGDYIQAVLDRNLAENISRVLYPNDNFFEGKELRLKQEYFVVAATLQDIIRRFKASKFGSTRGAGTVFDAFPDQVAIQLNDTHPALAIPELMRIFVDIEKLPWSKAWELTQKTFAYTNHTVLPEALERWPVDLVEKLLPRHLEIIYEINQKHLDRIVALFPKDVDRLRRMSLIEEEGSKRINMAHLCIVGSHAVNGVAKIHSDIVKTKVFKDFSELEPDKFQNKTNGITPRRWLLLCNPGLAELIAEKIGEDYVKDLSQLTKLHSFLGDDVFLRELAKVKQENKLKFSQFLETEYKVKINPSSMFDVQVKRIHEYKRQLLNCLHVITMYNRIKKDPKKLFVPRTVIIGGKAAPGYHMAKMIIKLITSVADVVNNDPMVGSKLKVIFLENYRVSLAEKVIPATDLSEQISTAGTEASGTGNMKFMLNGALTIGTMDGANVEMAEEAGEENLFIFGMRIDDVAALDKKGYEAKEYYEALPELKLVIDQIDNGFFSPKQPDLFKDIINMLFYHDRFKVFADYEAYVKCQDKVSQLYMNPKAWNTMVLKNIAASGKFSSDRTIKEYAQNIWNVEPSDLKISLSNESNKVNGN
The data set can be described thus: Glycogen phosphorylase inhibition of glycogen degradation (multienzyme coupled assay, NADH fluorescence). The following applies: glycogen degradation direction. Type of data set: biochemical. As to the method:
The activity of the compounds is alternatively determined by measuring the inhibitory effect of the compounds on glycogen degradation, the production of glucose-1-phosphate from glycogen is monitored by the multienzyme coupled assay, as described in EP 0 846 464 A2, general method of Pesce et al (Pesce, M A, Bodourian, S H, Harris, R C, and Nicholson, J F (1977) Clinical Chemistry 23, […]). The reactions were in 384well microplate format in a volume of 50 μl. The change in fluorescence due to the conversion of the co-factor NAD to NADH is measured at 340 nm excitation, 465 nm emission in a Tecan Ultra Multifunctional Microplate Reader. The reaction is in 50 mM HEPES, 3.5 mM KH2PO4, 2.5 mM MgCl2, 2.5mM ethylene glycol-bis(b-aminoethyl ether) N,N,N′,N′-tetraacetic acid, 100 mM KCl, 8mM D-(+)-glucose pH7.2, containing 0.5 mM dithiothreitol, the assay buffer solution. Human recombinant liver glycogen phosphorylase α (hrl GPα) 20 nM is pre-incubated in assay buffer solution with 6.25 mM NAD, 1.25 mg type III glycogen at 1.25 mg ml^−1 the reagent buffer, for 30 minutes. […] The non-inhibited activity of GPα is measured in the presence of 10 μl 5% DMSO in assay buffer solution and maximum inhibition measured in the presence of 5 mgs ml^−1 N-ethylmaleimide. […] Relative Fluoresence Units (RFUs) are measured at 340 nm excitation, 465 nm emission. […]

SMILES strings stand for the structures.

For `CCN1C(C)=C(C(=O)OC(C)C)C(c2ccccc2Cl)C2=C1COC2=O` (stereo not drawn) [Bay R 3401], in data set [1], the “arterial plasma glucose following a glucagon challenge” value is “reduced significantly” and the “hepatic glucose output following a glucagon challenge” value was “reduced significantly”.

Turning to `CN(C)C(=O)[C@H](O)[C@H](Cc1ccccc1)NC(=O)c1cc2cc(Cl)ccc2[nH]1` [CP91149], in the data set with hepatocytes, the glucagon stimulated glycogenolysis entry was “reduce” and the “glucose output in hepatocytes” value is recorded as “reduce”. For the same compound, the plasma glucose concentration entry in data set [2] is listed as “reduced, in a dose related manner”.

Regarding `O=C(N[C@@H](Cc1ccc(F)cc1)C(=O)N1CCC(O)CC1)c1cc2cc(Cl)ccc2[nH]1` [CP320626], in the data set with hepatocytes, the glucagon stimulated glycogenolysis entry was “reduce” and the “glucose output in hepatocytes” value is recorded as “reduce”. Moreover, the plasma glucose concentration result in data set [2] is given as “reduced, in a dose related manner”.

On to `O=C(CN(CCO)Cc1ccccc1)N[C@@H]1c2ccccc2C[C@H]1NC(=O)c1cc2cc(Cl)ccc2[nH]1` [Example 17, 5-Chloro-N-[(1R,2R)-1-({[(2-hydroxyethyl)(phenylmethyl)amino]acetyl}amino)-2,3-dihydro-1H-inden-2-yl]-1H-indole-2-carboxamide], for which, in data set [3], the IC50 (as a rule, the concentration that inhibits the measured activity by half) was 7.4 µM.

The record behind these values is US7138415B2, “Indolamid derivatives which possess glycogenphosphorylase inhibitory activity” (AstraZeneca AB, priority 2002, dated 2006).
